Laboratory results published in patent US20090291938A1 (TAKEDA PHARMACEUTICAL COMPANY LIMITED, priority 2007, published 2009).

tested on: HT29 human colorectal adenocarcinoma cell line; assay: cell proliferation assay (Cell Titer-Glo luminescent cell viability assay); assay type: cell-based; details: HT-29, 72 h, read-out: pIC50 (converted)
Method in brief: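 Cells grown in DMEM with 10% FBS and exposed to compounds for 72 h. Viability read by CellTiter-Glo luminescence, expressed as percentage of DMSO-treated cells.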

Row | SMILES | IC50
1 | CCC1(C)CN(C2CCCC2)c2nc(Nc3ccc(C(=O)NC4CCN(C)CC4)cc3OC)ncc2N(C)C1=O (centres unmarked) [Compound 131, 4-(9-Cyclopentyl-7-ethyl-5,7-dimethyl-6-oxo-6,7,8,9-tetrahydro-5H-pyrimido[4,5-b][1,4]diazepin-2-ylamino)-3-methoxy-N-(1-methylpiperidin-4-yl)benzamide] | 3.16 to 10 nM
2 | COc1cc(C(=O)O)ccc1Nc1ncc2c(n1)N(C1CCCC1)CC(C)(C)C(=O)N2C [Compound 85, 4-(9-Cyclopentyl-5,7,7-trimethyl-6-oxo-6,7,8,9-tetrahydro-5H-pyrimido[4,5-b][1,4]diazepin-2-ylamino)-3-methoxybenzoic Acid] | 3.16 to 10 nM

same assay, conditions: HT-29, cell proliferative assay, HT29 cells, 72 hr treatment, values given as ranges, read-out: pIC50 (converted)

Row | SMILES | IC50
3 | C=CCC1CN(C2CCCCC2)c2nc(Nc3ccc(C(=O)N[C@H]4CCCN(C)C4)cc3OC)ncc2N(C)C1=O (stereo partly drawn) [Compound 227, 4-(7-allyl-9-cyclohexyl-5-methyl-6-oxo-6,7,8,9-tetrahydro-5H-pyrimido[4,5-b][1,4]diazepin-2-ylamino)-3-methoxy-N-((S)-1-methylpiperidin-3-yl)benzamide] | > 10 nM
4 | COc1cc(C(=O)NC2CNC2)ccc1Nc1ncc2c(n1)N(C1CCCCC1)CC(C)(C)C(=O)N2C [Compound 118, N-(azetidin-3-yl)-4-(9-cyclohexyl-5,7,7-trimethyl-6-oxo-6,7,8,9-tetrahydro-5H-pyrimido[4,5-b][1,4]diazepin-2-ylamino)-3-methoxybenzamide] | 3.16 to 10 nM
5 | COc1cc(C(=O)NCC2CCNCC2)ccc1Nc1ncc2c(n1)N(C1CCCC1)CCC(=O)N2C [Compound 60, 4-(9-cyclopentyl-5-methyl-6-oxo-6,7,8,9-tetrahydro-5H-pyrimido[4,5-b][1,4]diazepin-2-ylamino)-3-methoxy-N-(piperidin-4-ylmethyl)benzamide] | > 10 nM
6 | COc1cc(C(=O)NN2CCN(C)CC2)ccc1Nc1ncc2c(n1)N(C1CCCC1)CC(C)(C)C(=O)N2C [Compound 106, 4-(9-cyclopentyl-5,7,7-trimethyl-6-oxo-6,7,8,9-tetrahydro-5H-pyrimido[4,5-b][1,4]diazepin-2-ylamino)-3-methoxy-N-(4-methylpiperazin-1-yl)benzamide] | < 1 nM
7 | C=CC1(C)CN(C2CCCC2)c2nc(Nc3ccc(C(=O)N[C@@H]4CCCNC4)cc3OC)ncc2N(C)C1=O (stereo partly drawn) [Compound 245, 4-(9-cyclopentyl-5,7-dimethyl-6-oxo-7-vinyl-6,7,8,9-tetrahydro-5H-pyrimido[4,5-b][1,4]diazepin-2-ylamino)-3-methoxy-N-((R)-piperidin-3-yl)benzamide] | 3.16 to 10 nM
8 | C=CC[C@H]1CN(C2CCCC2)c2nc(Nc3ccc(C(=O)N[C@@H]4CCCNC4)cc3OC)ncc2N(C)C1=O [Compound 200, 4-((S)-7-allyl-9-cyclopentyl-5-methyl-6-oxo-6,7,8,9-tetrahydro-5H-pyrimido[4,5-b][1,4]diazepin-2-ylamino)-3-methoxy-N-((R)-piperidin-3-yl)benzamide] | 1 to 2.51 nM
9 | C=CC[C@H]1CN(C2CCCC2)c2nc(Nc3ccc(C(=O)N[C@@H]4CCNC4)cc3OC)ncc2N(C)C1=O [Compound 202, 4-((S)-7-allyl-9-cyclopentyl-5-methyl-6-oxo-6,7,8,9-tetrahydro-5H-pyrimido[4,5-b][1,4]diazepin-2-ylamino)-3-methoxy-N-((R)-pyrrolidin-3-yl)benzamide] | 1 to 2.51 nM
10 | COc1cc(C(=O)NCc2ccncc2)ccc1Nc1ncc2c(n1)N(C1CCCC1)CCC(=O)N2C [Compound 71, 4-(9-cyclopentyl-5-methyl-6-oxo-6,7,8,9-tetrahydro-5H-pyrimido[4,5-b][1,4]diazepin-2-ylamino)-3-methoxy-N-(pyridin-4-ylmethyl)benzamide] | 3.16 to 10 nM
11 | C=CCC1CN(C2CCCCC2)c2nc(Nc3ccc(C(=O)N[C@H]4CCCNC4)cc3OC)ncc2N(C)C1=O (stereo partly drawn) [Compound 192, 4-(7-allyl-9-cyclohexyl-5-methyl-6-oxo-6,7,8,9-tetrahydro-5H-pyrimido[4,5-b][1,4]diazepin-2-ylamino)-3-methoxy-N-((S)-piperidin-3-yl)benzamide] | > 10 nM
12 | C=CC1(C)CN(C2CCCC2)c2nc(Nc3ccc(C(=O)NN4CCN(C)CC4)cc3OC)ncc2N(C)C1=O (centres unmarked) [Compound 242, 4-(9-cyclopentyl-5,7-dimethyl-6-oxo-7-vinyl-6,7,8,9-tetrahydro-5H-pyrimido[4,5-b][1,4]diazepin-2-ylamino)-3-methoxy-N-(4-methylpiperazin-1-yl)benzamide] | > 10 nM
13 | C#CCC1CN(C2CCCC2)c2nc(Nc3ccc(C(=O)NC4CCNCC4)cc3OC)ncc2N(C)C1=O (centres unmarked) [Compound 211, 4-(9-cyclopentyl-5-methyl-6-oxo-7-(prop-2-ynyl)-6,7,8,9-tetrahydro-5H-pyrimido[4,5-b][1,4]diazepin-2-ylamino)-3-methoxy-N-(piperidin-4-yl)benzamide] | 1 to 2.51 nM

Further lines, results first:

Row | IC50 | SMILES
14 | < 1 nM | CCN1CCC(NC(=O)c2ccc(Nc3ncc4c(n3)N(C3CCCCC3)CC(C)(C)C(=O)N4C)c(OC)c2)CC1 [Compound 113, 4-(9-cyclohexyl-5,7,7-trimethyl-6-oxo-6,7,8,9-tetrahydro-5H-pyrimido[4,5-b][1,4]diazepin-2-ylamino)-N-(1-ethylpiperidin-4-yl)-3-methoxybenzamide]
15 | 3.16 to 10 nM | COc1cc(C(=O)N[C@@H]2CCN(C)C2)ccc1Nc1ncc2c(n1)N(C1CCCC1)CC(C)(C)C(=O)N2C [Compound 96, (R)-4-(9-cyclopentyl-5,7,7-trimethyl-6-oxo-6,7,8,9-tetrahydro-5H-pyrimido[4,5-b][1,4]diazepin-2-ylamino)-3-methoxy-N-(1-methylpyrrolidin-3-yl)benzamide]
16 | 1 to 2.51 nM | COc1cc(C(=O)NC2CCN(C)CC2)ccc1Nc1ncc2c(n1)N(C1CCCC1)CC1(CC1)C(=O)N2C [Compound 33, 4-(9′-cyclopentyl-5′-methyl-6′-oxo-5′,6′,8′,9′-tetrahydrospiro[cyclopropane-1,7′-pyrimido[4,5-b][1,4]diazepine]-2′-ylamino)-3-methoxy-N-(1-methylpiperidin-4-yl)benzamide]
17 | 3.16 to 10 nM | CC[C@]1(C)CN(C2CCCCC2)c2nc(Nc3ccc(C(=O)NC4CN(C)C4)cc3OC)ncc2N(C)C1=O [Compound 145, (R)-4-(9-cyclohexyl-7-ethyl-5,7-dimethyl-6-oxo-6,7,8,9-tetrahydro-5H-pyrimido[4,5-b][1,4]diazepin-2-ylamino)-3-methoxy-N-(1-methylazetidin-3-yl)benzamide]
18 | < 1 nM | COc1cc(C(=O)NC2CCN(C)CC2)ccc1Nc1ncc2c(n1)N(C1CCCC1C)CC1(CC1)C(=O)N2C (centres unmarked) [Compound 177, 3-methoxy-4-(5′-methyl-9′-(2-methylcyclopentyl)-6′-oxo-5′,6′,8′,9′-tetrahydrospiro[cyclopropane-1,7′-pyrimido[4,5-b][1,4]diazepine]-2′-ylamino)-N-(1-methylpiperidin-4-yl)benzamide]
19 | 3.16 to 10 nM | C=CC1(C)CN(C2CCCC2)c2nc(Nc3ccc(C(=O)NC4CN(C)C4)cc3OC)ncc2N(C)C1=O (centres unmarked) [Compound 247, 4-(9-cyclopentyl-5,7-dimethyl-6-oxo-7-vinyl-6,7,8,9-tetrahydro-5H-pyrimido[4,5-b][1,4]diazepin-2-ylamino)-3-methoxy-N-(1-methylazetidin-3-yl)benzamide]
20 | 3.16 to 10 nM | CCC1(C)CN(C2CCCCC2)c2nc(Nc3ccc(C(=O)N[C@H]4CC[C@H](O)CC4)cc3OC)ncc2N(C)C1=O (stereo partly drawn) [Compound 141, 4-(9-cyclohexyl-7-ethyl-5,7-dimethyl-6-oxo-6,7,8,9-tetrahydro-5H-pyrimido[4,5-b][1,4]diazepin-2-ylamino)-N-((1R,4R)-4-hydroxycyclohexyl)-3-methoxybenzamide]
21 | 3.16 to 10 nM | COc1cc(C(=O)N[C@H]2CCN(C)C2)ccc1Nc1ncc2c(n1)N(C1CCCC1)CC1(CC1)C(=O)N2C [Compound 167, (S)-4-(9′-cyclopentyl-5′-methyl-6′-oxo-5′,6′,8′,9′-tetrahydrospiro[cyclopropane-1,7′-pyrimido[4,5-b][1,4]diazepine]-2′-ylamino)-3-methoxy-N-(1-methylpyrrolidin-3-yl)benzamide]
22 | 1 to 2.51 nM | COc1cc(C(=O)N[C@H]2CCCNC2)ccc1Nc1ncc2c(n1)N(C1CCCC1)CC(C)(C)C(=O)N2C [Compound 101, (S)-4-(9-cyclopentyl-5,7,7-trimethyl-6-oxo-6,7,8,9-tetrahydro-5H-pyrimido[4,5-b][1,4]diazepin-2-ylamino)-3-methoxy-N-(piperidin-3-yl)benzamide]
23 | 1 to 2.51 nM | COc1cc(C(=O)N[C@H]2CCCNC2)ccc1Nc1ncc2c(n1)N(C1CCCC1)CC1(CC1)C(=O)N2C [Compound 166, (S)-4-(9′-cyclopentyl-5′-methyl-6′-oxo-5′,6′,8′,9′-tetrahydrospiro[cyclopropane-1,7′-pyrimido[4,5-b][1,4]diazepine]-2′-ylamino)-3-methoxy-N-(piperidin-3-yl)benzamide]
24 | 1 to 2.51 nM | COc1cc(C(=O)N[C@@H]2CCCN(C)C2)ccc1Nc1ncc2c(n1)N(C1CCCC1)CC(C)(C)C(=O)N2C [Compound 98, (R)-4-(9-cyclopentyl-5,7,7-trimethyl-6-oxo-6,7,8,9-tetrahydro-5H-pyrimido[4,5-b][1,4]diazepin-2-ylamino)-3-methoxy-N-(1-methylpiperidin-3-yl)benzamide]
25 | > 10 nM | COc1cc(C(=O)N[C@@H]2CCCN(C)C2)ccc1Nc1ncc2c(n1)N(C1CCCC1)CCC(=O)N2C [Compound 53, (R)-4-(9-cyclopentyl-5-methyl-6-oxo-6,7,8,9-tetrahydro-5H-pyrimido[4,5-b][1,4]diazepin-2-ylamino)-3-methoxy-N-(1-methylpiperidin-3-yl)benzamide]
26 | 1 to 2.51 nM | COc1cc(C(=O)NC2CCN(C)CC2)ccc1Nc1ncc2c(n1)N(C1CCCCC1)CC1(CC1)C(=O)N2C [Compound 169, 4-(9′-cyclohexyl-5′-methyl-6′-oxo-5′,6′,8′,9′-tetrahydrospiro[cyclopropane-1,7′-pyrimido[4,5-b][1,4]diazepine]-2′-ylamino)-3-methoxy-N-(1-methylpiperidin-4-yl)benzamide]
